Experimental data taken from PubChem BioAssay AID2310 (SRMLSC, 2010).

Tested on: virus CPE inhibition assay, host cell viability
Assay: dose response, CPE inhibition, cell viability (AID 2310)
[1] = measured here: HTS CPE inhibition EC50
[2] = measured here: HTS cell viability IC50
[3] = measured here: cytotoxicity, cell viability IC50

SMILES: COc1ccc(-c2nc(=O)[nH]c3c2CCc2ccccc2-3)cc1
- EC50: 960 nM
- EC50 [1]: 1100 nM
- CC50 [2]: > 20000 nM
- CC50 [3]: > 50000 nM

SMILES: Cc1cccc(C2NC(=O)NC3=C2CCc2ccccc23)c1 (stereo unspecified)
- EC50: 700 nM
- EC50 [1]: 908 nM
- CC50 [2]: > 20000 nM
- CC50 [3]: > 50000 nM

SMILES: O=C(Nc1c(-c2ccccc2)nc2sccn12)c1ccccc1
- EC50: 634 nM
- EC50 [1]: 634 nM
- CC50 [2]: > 60000 nM
- CC50 [3]: > 60000 nM

SMILES: O=C1NC2=C(CCc3ccccc32)C(c2ccc3c(c2)OCO3)N1 (stereo unspecified)
- EC50: 390 nM
- EC50 [1]: > 20000 nM
- CC50 [2]: 17500 nM
- CC50 [3]: 29600 nM
